How the values were obtained:
[1] = target: RAC-beta serine/threonine-protein kinase (Homo sapiens) (UniProt P31751); conditions: Compound concentration 1000.0 nM
[2] = target: Ankyrin repeat and protein kinase domain-containing protein 1 (Homo sapiens) (UniProt Q8NFD2); conditions: Compound concentration 1000.0 nM
[3] = target: Aurora kinase B (Homo sapiens) (UniProt Q96GD4); conditions: Compound concentration 1000.0 nM
[4] = target: Bone morphogenetic protein receptor type-1A (Homo sapiens) (UniProt P36894); conditions: Compound concentration 1000.0 nM
Sequence of Bone morphogenetic protein receptor type-1A (Homo sapiens) (P36894 whole entry): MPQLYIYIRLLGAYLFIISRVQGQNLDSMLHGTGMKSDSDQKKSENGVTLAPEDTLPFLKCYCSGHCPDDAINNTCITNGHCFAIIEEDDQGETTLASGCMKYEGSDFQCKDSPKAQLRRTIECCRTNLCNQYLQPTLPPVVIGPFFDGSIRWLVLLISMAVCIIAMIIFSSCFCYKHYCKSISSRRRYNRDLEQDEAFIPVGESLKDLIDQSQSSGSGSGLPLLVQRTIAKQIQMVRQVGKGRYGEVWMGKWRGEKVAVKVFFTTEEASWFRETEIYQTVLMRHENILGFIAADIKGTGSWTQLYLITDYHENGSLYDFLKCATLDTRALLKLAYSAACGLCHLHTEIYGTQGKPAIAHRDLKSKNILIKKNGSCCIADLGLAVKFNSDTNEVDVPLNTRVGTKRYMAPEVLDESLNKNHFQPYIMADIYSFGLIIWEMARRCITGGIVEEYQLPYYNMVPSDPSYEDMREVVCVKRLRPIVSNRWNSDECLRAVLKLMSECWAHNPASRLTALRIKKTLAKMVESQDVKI

[5] = target: Bone morphogenetic protein receptor type-1B (Homo sapiens) (UniProt O00238); conditions: Compound concentration 1000.0 nM
[6] = target: Calcium/calmodulin-dependent protein kinase type 1D (Homo sapiens) (UniProt Q8IU85); conditions: Compound concentration 1000.0 nM
[7] = target: Calcium/calmodulin-dependent protein kinase type II subunit alpha (Homo sapiens) (UniProt Q9UQM7); conditions: Compound concentration 1000.0 nM
[8] = target: Cyclin-dependent kinase 11A (Homo sapiens) (UniProt Q9UQ88); conditions: Compound concentration 1000.0 nM
Sequence of Cyclin-dependent kinase 11A (Homo sapiens) (Q9UQ88 whole entry): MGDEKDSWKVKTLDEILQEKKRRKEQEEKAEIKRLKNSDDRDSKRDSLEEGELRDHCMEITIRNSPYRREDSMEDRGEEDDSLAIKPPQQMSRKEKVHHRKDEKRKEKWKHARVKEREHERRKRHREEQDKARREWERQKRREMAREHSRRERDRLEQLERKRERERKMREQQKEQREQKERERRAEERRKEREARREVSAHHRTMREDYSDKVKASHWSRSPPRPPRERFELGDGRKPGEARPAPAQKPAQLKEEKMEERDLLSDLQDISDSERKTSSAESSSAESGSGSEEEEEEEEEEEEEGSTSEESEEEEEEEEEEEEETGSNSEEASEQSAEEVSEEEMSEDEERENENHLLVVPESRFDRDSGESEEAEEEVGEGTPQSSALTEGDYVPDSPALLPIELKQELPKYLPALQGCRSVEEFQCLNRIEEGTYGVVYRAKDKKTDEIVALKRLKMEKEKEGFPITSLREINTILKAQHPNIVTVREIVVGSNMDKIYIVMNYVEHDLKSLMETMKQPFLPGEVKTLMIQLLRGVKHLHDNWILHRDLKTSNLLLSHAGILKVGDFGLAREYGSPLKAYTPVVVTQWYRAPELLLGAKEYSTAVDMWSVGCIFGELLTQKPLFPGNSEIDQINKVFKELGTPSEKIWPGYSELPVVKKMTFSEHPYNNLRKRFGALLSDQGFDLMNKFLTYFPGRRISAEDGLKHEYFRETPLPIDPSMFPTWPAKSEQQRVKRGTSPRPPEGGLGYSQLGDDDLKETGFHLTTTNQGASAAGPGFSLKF

[9] = target: Cyclin-dependent kinase 5 (Homo sapiens) (UniProt Q00535); conditions: Compound concentration 1000.0 nM
Sequence of Cyclin-dependent kinase 5 (Homo sapiens) (Q00535 whole entry, looked up): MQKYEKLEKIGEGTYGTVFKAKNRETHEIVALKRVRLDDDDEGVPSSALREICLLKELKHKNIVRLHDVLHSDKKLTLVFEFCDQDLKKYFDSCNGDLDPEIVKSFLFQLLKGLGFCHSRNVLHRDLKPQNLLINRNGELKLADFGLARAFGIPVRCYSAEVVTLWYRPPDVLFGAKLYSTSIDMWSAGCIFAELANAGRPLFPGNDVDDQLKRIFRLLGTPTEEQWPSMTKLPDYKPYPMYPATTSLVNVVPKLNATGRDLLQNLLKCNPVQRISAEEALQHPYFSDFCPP

[10] = target: Casein kinase II subunit alpha (Homo sapiens) (UniProt P68400); conditions: Compound concentration 1000.0 nM
Sequence of Casein kinase II subunit alpha (Homo sapiens) (P68400 whole entry, looked up): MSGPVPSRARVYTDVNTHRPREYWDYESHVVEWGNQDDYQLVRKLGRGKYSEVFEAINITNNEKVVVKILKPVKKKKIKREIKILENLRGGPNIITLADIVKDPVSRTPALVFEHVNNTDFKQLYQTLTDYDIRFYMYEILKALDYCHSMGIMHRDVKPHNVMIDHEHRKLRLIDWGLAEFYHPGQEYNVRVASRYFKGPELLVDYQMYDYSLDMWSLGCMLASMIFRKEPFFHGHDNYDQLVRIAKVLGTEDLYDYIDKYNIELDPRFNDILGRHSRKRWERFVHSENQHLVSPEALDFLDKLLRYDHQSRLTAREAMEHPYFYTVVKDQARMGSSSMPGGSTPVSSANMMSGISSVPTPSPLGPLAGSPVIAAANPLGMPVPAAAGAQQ

[11] = target: Serine/threonine-protein kinase 17A (Homo sapiens) (UniProt Q9UEE5); conditions: Compound concentration 1000.0 nM
[12] = target: Dual specificity tyrosine-phosphorylation-regulated kinase 2 (Homo sapiens) (UniProt Q92630); conditions: Compound concentration 1000.0 nM
[13] = system: Epidermal growth factor receptor (Homo sapiens), P00533 [T790M]; conditions: Compound concentration 1000.0 nM
[14] = target: Ephrin type-A receptor 2 (Homo sapiens) (UniProt P29317); conditions: Compound concentration 1000.0 nM
[15] = target: Ephrin type-A receptor 3 (Homo sapiens) (UniProt P29320); conditions: Compound concentration 1000.0 nM
[16] = target: Mitogen-activated protein kinase 15 (Homo sapiens) (UniProt Q8TD08); conditions: Compound concentration 1000.0 nM
[17] = system: Fibroblast growth factor receptor 3 (Homo sapiens), P22607 [G697C]; conditions: Compound concentration 1000.0 nM
[18] = system: Receptor-type tyrosine-protein kinase FLT3 (Homo sapiens), P36888 [D835V]; conditions: Compound concentration 1000.0 nM
[19] = target: Glycogen synthase kinase-3 alpha (Homo sapiens) (UniProt P49840); conditions: Compound concentration 1000.0 nM
[20] = target: Tyrosine-protein kinase ITK/TSK (Homo sapiens) (UniProt Q08881); conditions: Compound concentration 1000.0 nM
Sequence of Tyrosine-protein kinase ITK/TSK (Homo sapiens) (Q08881 whole entry): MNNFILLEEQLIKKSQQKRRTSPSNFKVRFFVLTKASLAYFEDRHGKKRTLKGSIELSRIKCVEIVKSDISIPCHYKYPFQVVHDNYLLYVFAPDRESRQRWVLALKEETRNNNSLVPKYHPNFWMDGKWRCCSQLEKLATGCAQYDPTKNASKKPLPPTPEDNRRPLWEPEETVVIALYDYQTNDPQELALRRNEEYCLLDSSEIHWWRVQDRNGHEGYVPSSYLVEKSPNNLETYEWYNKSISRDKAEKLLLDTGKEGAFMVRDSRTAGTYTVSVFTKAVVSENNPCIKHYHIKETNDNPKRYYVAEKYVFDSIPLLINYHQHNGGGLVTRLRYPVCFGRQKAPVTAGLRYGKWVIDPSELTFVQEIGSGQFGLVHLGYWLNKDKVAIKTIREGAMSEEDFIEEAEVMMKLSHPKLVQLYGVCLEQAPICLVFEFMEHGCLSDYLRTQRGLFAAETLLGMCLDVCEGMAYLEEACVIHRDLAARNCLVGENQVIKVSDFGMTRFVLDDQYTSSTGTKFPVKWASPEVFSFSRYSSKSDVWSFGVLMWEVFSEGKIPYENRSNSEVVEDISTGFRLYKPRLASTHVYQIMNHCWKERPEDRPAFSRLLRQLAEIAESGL

[21] = target: Mitogen-activated protein kinase 8 (Homo sapiens) (UniProt P45983); conditions: Compound concentration 1000.0 nM
[22] = system: Mast/stem cell growth factor receptor Kit (Homo sapiens), P10721 [V559D]; conditions: Compound concentration 1000.0 nM
[23] = target: Serine/threonine-protein kinase LATS2 (Homo sapiens) (UniProt Q9NRM7); conditions: Compound concentration 1000.0 nM
[24] = target: Mitogen-activated protein kinase kinase kinase 2 (Homo sapiens) (UniProt Q9Y2U5); conditions: Compound concentration 1000.0 nM
[25] = target: Dual specificity mitogen-activated protein kinase kinase 4 (Homo sapiens) (UniProt P45985); conditions: Compound concentration 1000.0 nM
[26] = target: MAP kinase-interacting serine/threonine-protein kinase 2 (Homo sapiens) (UniProt Q9HBH9); conditions: Compound concentration 1000.0 nM
Sequence of MAP kinase-interacting serine/threonine-protein kinase 2 (Homo sapiens) (Q9HBH9 whole entry, looked up): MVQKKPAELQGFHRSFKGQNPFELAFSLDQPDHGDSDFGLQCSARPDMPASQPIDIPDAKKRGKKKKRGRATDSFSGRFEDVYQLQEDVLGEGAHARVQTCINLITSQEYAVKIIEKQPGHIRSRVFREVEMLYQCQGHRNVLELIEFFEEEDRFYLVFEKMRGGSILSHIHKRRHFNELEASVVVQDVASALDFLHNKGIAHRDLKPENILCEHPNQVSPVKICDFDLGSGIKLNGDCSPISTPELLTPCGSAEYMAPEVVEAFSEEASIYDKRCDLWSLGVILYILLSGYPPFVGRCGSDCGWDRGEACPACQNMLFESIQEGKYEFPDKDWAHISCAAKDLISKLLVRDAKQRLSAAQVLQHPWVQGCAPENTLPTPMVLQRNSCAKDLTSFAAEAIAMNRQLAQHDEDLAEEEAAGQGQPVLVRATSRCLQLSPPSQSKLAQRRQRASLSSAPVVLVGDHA

[27] = target: Myosin light chain kinase (Homo sapiens) (UniProt Q32MK0); conditions: Compound concentration 1000.0 nM
Sequence of Myosin light chain kinase (Homo sapiens) (Q32MK0 whole entry): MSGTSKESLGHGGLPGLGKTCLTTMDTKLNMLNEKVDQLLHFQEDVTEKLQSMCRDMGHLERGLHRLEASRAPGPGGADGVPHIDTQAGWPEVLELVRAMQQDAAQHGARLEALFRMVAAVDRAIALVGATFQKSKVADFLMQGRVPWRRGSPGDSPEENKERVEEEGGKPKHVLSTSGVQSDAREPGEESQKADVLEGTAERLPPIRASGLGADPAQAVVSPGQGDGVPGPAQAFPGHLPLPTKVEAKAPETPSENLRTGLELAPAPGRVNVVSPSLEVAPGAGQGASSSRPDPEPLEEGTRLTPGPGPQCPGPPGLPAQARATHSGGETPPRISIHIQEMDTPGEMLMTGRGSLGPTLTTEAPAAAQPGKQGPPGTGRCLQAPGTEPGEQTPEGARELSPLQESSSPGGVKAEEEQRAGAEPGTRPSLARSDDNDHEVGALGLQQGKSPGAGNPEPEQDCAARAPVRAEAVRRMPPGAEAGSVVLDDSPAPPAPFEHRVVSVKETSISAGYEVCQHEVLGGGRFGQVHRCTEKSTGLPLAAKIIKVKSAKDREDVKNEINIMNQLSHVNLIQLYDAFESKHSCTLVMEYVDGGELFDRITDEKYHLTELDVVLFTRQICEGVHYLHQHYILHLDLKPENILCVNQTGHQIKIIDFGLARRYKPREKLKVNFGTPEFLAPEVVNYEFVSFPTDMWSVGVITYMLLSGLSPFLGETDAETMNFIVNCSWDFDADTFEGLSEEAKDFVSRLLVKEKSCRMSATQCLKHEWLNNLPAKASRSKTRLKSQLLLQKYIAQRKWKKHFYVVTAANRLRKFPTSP

[28] = target: Macrophage-stimulating protein receptor (Homo sapiens) (UniProt Q04912); conditions: Compound concentration 1000.0 nM
[29] = target: Myosin light chain kinase, smooth muscle (Homo sapiens) (UniProt Q15746); conditions: Compound concentration 1000.0 nM
[30] = target: Cyclin-dependent kinase 17 (Homo sapiens) (UniProt Q00537); conditions: Compound concentration 1000.0 nM
[31] = target: Phosphatidylinositol 5-phosphate 4-kinase type-2 gamma (Homo sapiens) (UniProt Q8TBX8); conditions: Compound concentration 1000.0 nM
[32] = target: Serine/threonine-protein kinase N1 (Homo sapiens) (UniProt Q16512); conditions: Compound concentration 1000.0 nM
[33] = target: cGMP-dependent protein kinase 1 (Homo sapiens) (UniProt Q13976); conditions: Compound concentration 1000.0 nM
[34] = target: Serine/threonine-protein kinase PRP4 homolog (Homo sapiens) (UniProt Q13523); conditions: Compound concentration 1000.0 nM
[35] = target: Serine/threonine-protein kinase SIK3 (Homo sapiens) (UniProt Q9Y2K2); conditions: Compound concentration 1000.0 nM
[36] = target: RAF proto-oncogene serine/threonine-protein kinase (Homo sapiens) (UniProt P04049); conditions: Compound concentration 1000.0 nM
[37] = target: Serine/threonine-protein kinase Sgk1 (Homo sapiens) (UniProt O00141); conditions: Compound concentration 1000.0 nM
[38] = target: BDNF/NT-3 growth factors receptor (Homo sapiens) (UniProt Q16620); conditions: Compound concentration 1000.0 nM
Sequence of BDNF/NT-3 growth factors receptor (Homo sapiens) (Q16620 32-822 limits assumed): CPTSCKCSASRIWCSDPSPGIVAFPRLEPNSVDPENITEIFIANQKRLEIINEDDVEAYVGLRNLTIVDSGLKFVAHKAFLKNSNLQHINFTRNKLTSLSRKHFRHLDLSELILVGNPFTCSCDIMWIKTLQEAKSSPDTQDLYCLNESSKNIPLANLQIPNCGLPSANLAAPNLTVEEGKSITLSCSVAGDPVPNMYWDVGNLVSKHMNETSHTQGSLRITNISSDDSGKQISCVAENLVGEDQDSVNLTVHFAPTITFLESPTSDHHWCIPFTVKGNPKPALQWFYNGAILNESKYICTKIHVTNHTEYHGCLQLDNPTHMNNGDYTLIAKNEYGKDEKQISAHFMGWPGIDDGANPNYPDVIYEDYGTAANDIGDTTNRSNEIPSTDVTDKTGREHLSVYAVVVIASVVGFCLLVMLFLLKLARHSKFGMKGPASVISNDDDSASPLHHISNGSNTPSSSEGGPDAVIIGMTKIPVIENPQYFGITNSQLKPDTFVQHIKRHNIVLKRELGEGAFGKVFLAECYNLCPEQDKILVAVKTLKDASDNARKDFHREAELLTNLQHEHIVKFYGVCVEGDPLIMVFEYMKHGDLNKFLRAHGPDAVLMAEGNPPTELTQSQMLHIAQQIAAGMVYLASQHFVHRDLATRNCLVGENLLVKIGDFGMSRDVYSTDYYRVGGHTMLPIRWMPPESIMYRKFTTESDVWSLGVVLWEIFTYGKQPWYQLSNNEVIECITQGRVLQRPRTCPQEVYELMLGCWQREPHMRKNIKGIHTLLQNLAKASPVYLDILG

[39] = target: Testis-specific serine/threonine-protein kinase 3 (Homo sapiens) (UniProt Q96PN8); conditions: Compound concentration 1000.0 nM
Sequence of Testis-specific serine/threonine-protein kinase 3 (Homo sapiens) (Q96PN8 whole entry): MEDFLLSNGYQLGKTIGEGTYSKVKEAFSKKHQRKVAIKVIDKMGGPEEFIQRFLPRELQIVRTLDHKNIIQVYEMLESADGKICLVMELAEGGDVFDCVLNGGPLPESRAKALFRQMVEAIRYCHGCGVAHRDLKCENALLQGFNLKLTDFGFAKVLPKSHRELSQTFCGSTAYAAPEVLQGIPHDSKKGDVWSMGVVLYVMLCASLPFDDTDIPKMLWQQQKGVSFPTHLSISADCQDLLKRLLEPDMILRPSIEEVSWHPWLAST

[40] = target: Serine/threonine-protein kinase WNK3 (Homo sapiens) (UniProt Q9BYP7); conditions: Compound concentration 1000.0 nM
[41] = target: Serine/threonine-protein kinase 32A (Homo sapiens) (UniProt Q8WU08); conditions: Compound concentration 1000.0 nM
[42] = target: 5-hydroxytryptamine receptor 1A (Homo sapiens) (UniProt P08908); conditions: Compound concentration 10.0 uM
[43] = target: 5-hydroxytryptamine receptor 1B (Homo sapiens) (UniProt P28222); conditions: Compound concentration 10.0 uM
[44] = target: D(3) dopamine receptor (Homo sapiens) (UniProt P35462); conditions: Compound concentration 10.0 uM
[45] = target: Alpha-1B adrenergic receptor (Homo sapiens) (UniProt P35368); conditions: Compound concentration 10.0 uM

O=c1nc(-c2ccccn2)sc2ccccc12 [BTZO-1]
inactive: residual activity [1] 100% | residual activity [2] 100% | residual activity [3] 82% | residual activity [4] 100% | residual activity [5] 75% | residual activity [6] 90% | residual activity [7] 100% | residual activity [8] 94% | residual activity [9] 85% | residual activity [10] 68% | residual activity [11] 100% | residual activity [12] 100% | residual activity [13] 100% | residual activity [14] 100% | residual activity [15] 87% | residual activity [16] 100% | residual activity [17] 100% | residual activity [18] 100% | residual activity [19] 82% | residual activity [20] 82% | residual activity [21] 100% | residual activity [22] 95% | residual activity [23] 79% | residual activity [24] 92% | residual activity [25] 100% | residual activity [26] 100% | residual activity [27] 100% | residual activity [28] 100% | residual activity [29] 67% | residual activity [30] 100% | residual activity [31] 98% | residual activity [32] 77% | residual activity [33] 100% | residual activity [34] 71% | residual activity [35] 85% | residual activity [36] 100% | residual activity [37] 99% | residual activity [38] 96% | residual activity [39] 86% | residual activity [40] 100% | residual activity [41] 100% | inhibition [42] 9.69% | inhibition [43] -1.9% | inhibition [44] 13.6% | inhibition [45] 9.84%

O=C1NC(c2ccccn2)Sc2ccccc21 (stereo not given) [BTZO-4]
inactive: residual activity [1] 92% | residual activity [2] 77% | residual activity [3] 100% | residual activity [4] 100% | residual activity [5] 71% | residual activity [6] 82% | residual activity [7] 100% | residual activity [8] 100% | residual activity [9] 86% | residual activity [10] 61% | residual activity [11] 86% | residual activity [12] 99% | residual activity [13] 96% | residual activity [14] 100% | residual activity [15] 100% | residual activity [16] 100% | residual activity [17] 100% | residual activity [18] 100% | residual activity [19] 73% | residual activity [20] 77% | residual activity [21] 100% | residual activity [22] 100% | residual activity [23] 70% | residual activity [24] 82% | residual activity [25] 93% | residual activity [26] 100% | residual activity [27] 100% | residual activity [28] 100% | residual activity [29] 77% | residual activity [30] 100% | residual activity [31] 100% | residual activity [32] 60% | residual activity [33] 100% | residual activity [34] 78% | residual activity [35] 70% | residual activity [36] 100% | residual activity [37] 87% | residual activity [38] 87% | residual activity [39] 88% | residual activity [40] 100% | residual activity [41] 78% | inhibition [42] 24.7% | inhibition [43] 12.3% | inhibition [44] 27.8% | inhibition [45] -5.82%

Source: ChEMBL document CHEMBL4507329, “Data for DCP probe BTZO-1” (2021)
